Activity calls are given as the source filed them. The calls are words filed in the database; no cut-off is given here.
Assays:
[1] = Dark toxicity against human HepG2 cells pretreated for 24 hrs followed by 14 mins dark incubation measured after 1 hr by Alamar blue assay; format: cell-based
HepG2 [2] = assay: Phototoxicity against human HepG2 cells assessed as reduction in cell viability at 1 uM pretreated for 24 hrs followed by 1.81 J irradiation for 7 mins measured after 24 hrs by Alamar blue assay; format: functional, cell-based
HepG2 [3] = assay: Phototoxicity against human HepG2 cells pretreated for 24 hrs followed by 1.81 J irradiation for 7 mins measured after 24 hrs by Alamar blue assay; format: functional, cell-based; conditions: HepG2, light or radiation study
Caco-2 [4] = assay: Phototoxicity against human Caco2 cells assessed as reduction in cell viability at 1 uM pretreated for 24 hrs followed by 1.81 J irradiation for 7 mins measured after 1 to 24 hrs by Alamar blue assay; format: functional, cell-based
[5] = Dark toxicity against human Caco2 cells assessed as cell viability at 0.1 to 1 uM pretreated for 24 hrs followed by 14 mins dark incubation after 1 to 24 hrs by Alamar blue assay relative to control; format: cell-based; conditions: Caco-2 cells, read-out: Activity
Caco-2 [6] = assay: Phototoxicity against human Caco2 cells assessed as reduction in cell viability at 1 uM pretreated for 24 hrs followed by 3.61 J irradiation for 14 mins measured after 24 hrs by Alamar blue assay; format: functional, cell-based
Caco-2 [7] = assay: Ratio of IC50 for human Caco2 cells pretreated for 24 hrs followed by 14 mins dark incubation to IC50 for human Caco2 cells pretreated for 24 hrs followed by 3.61 J irradiation for 14 mins
Caco-2 [8] = assay: Phototoxicity against human Caco2 cells assessed as cell viability at 5 uM pretreated for 24 hrs followed by 3.61 J irradiation for 14 mins measured after 24 hrs by Alamar blue assay (reference value: 60%); format: functional; conditions: Caco-2, light or radiation study, read-out: Activity
HepG2 [9] = assay: Phototoxicity against human HepG2 cells assessed as reduction in cell viability at 1 uM pretreated for 24 hrs followed by 3.61 J irradiation for 14 mins measured after 1 hr by Alamar blue assay; format: functional, cell-based
HepG2 [10] = assay: Phototoxicity against human HepG2 cells assessed as reduction in cell viability at 1 uM pretreated for 24 hrs followed by 3.61 J irradiation for 14 mins measured after 24 hrs by Alamar blue assay; format: functional, cell-based
[11] = Dark toxicity against human HepG2 cells assessed as cell viability at 1 uM pretreated for 24 hrs followed by 14 mins dark incubation after 48 hrs by Alamar blue assay relative to control; format: cell-based; conditions: read-out: Activity
HepG2 [12] = assay: Phototoxicity against human HepG2 cells pretreated for 24 hrs followed by 1.81 J irradiation for 7 mins measured after 1 hr by Alamar blue assay; format: functional, cell-based; conditions: HepG2, light or radiation study
Caco-2 [13] = assay: Phototoxicity against human Caco2 cells pretreated for 24 hrs followed by 1.81 J irradiation for 7 mins measured after 24 hrs by Alamar blue assay; format: functional, cell-based; conditions: Caco-2, light or radiation study
[14] = Dark toxicity against human Caco2 cells pretreated for 24 hrs followed by 14 mins dark incubation measured after 24 hrs by Alamar blue assay; format: cell-based; conditions: Caco-2 cells
[15] = Dark toxicity against human Caco2 cells pretreated for 24 hrs followed by 14 mins dark incubation measured after 1 hr by Alamar blue assay; format: cell-based; conditions: Caco-2 cells
HepG2 [16] = assay: Phototoxicity against human HepG2 cells pretreated for 24 hrs followed by 3.61 J irradiation for 14 mins measured after 24 hrs by Alamar blue assay; format: functional, cell-based; conditions: HepG2, light or radiation study
[17] = Dark toxicity against human HepG2 cells pretreated for 24 hrs followed by 14 mins dark incubation measured after 24 hrs by Alamar blue assay; format: cell-based
HepG2 [18] = assay: Phototoxicity against human HepG2 cells pretreated for 24 hrs followed by 3.61 J irradiation for 14 mins measured after 1 hr by Alamar blue assay; format: functional, cell-based; conditions: HepG2, light or radiation study
[19] = Dark toxicity against human Caco2 cells assessed as cell viability at 5 to 10 uM pretreated for 24 hrs followed by 14 mins dark incubation measured after 1 to 24 hrs by Alamar blue assay relative to control; format: cell-based; conditions: Caco-2 cells, read-out: Activity
Caco-2 [20] = assay: Phototoxicity against human Caco2 cells pretreated for 24 hrs followed by 1.81 J irradiation for 7 mins measured after 1 hr by Alamar blue assay; format: functional, cell-based; conditions: Caco-2, light or radiation study
Caco-2 [21] = assay: Phototoxicity against human Caco2 cells pretreated for 24 hrs followed by 3.61 J irradiation for 14 mins measured after 1 hr by Alamar blue assay; format: functional, cell-based; conditions: Caco-2, light or radiation study
Caco-2 [22] = assay: Phototoxicity against human Caco2 cells pretreated for 24 hrs followed by 3.61 J irradiation for 14 mins measured after 24 hrs by Alamar blue assay; format: functional, cell-based; conditions: Caco-2, light or radiation study
[23] = Dark toxicity against human HepG2 cells assessed as cell viability at 5 to 10 uM pretreated for 24 hrs followed by 14 mins dark incubation measured after 1 to 24 hrs by Alamar blue assay relative to control; format: cell-based; conditions: read-out: Activity
[24] = Induction of singlet oxygen production in chloroform
Caco-2 [25] = assay: Phototoxicity against human Caco2 cells assessed as cell viability at 5 uM pretreated for 24 hrs followed by 1.81 J irradiation for 7 mins measured after 24 hrs by Alamar blue assay (reference value: 60%); format: functional; conditions: Caco-2, light or radiation study, read-out: Activity
Caco-2 [26] = assay: Phototoxicity against human Caco2 cells assessed as cell viability at 1 uM pretreated for 24 hrs followed by 3.61 J irradiation for 14 mins measured after 24 hrs by Alamar blue assay (reference value: 80%); format: functional; conditions: Caco-2, light or radiation study, read-out: Activity
[27] = Dark toxicity against human Caco2 cells assessed as cell viability at 1 uM pretreated for 24 hrs followed by 14 mins dark incubation after 1 to 24 hrs by Alamar blue assay relative to control; format: cell-based; conditions: Caco-2 cells, read-out: Activity
HepG2 [28] = assay: Phototoxicity against human HepG2 cells assessed as reduction in cell viability at 1 uM pretreated for 24 hrs followed by 1.81 J irradiation for 7 mins measured after 1 hr by Alamar blue assay; format: functional, cell-based
HepG2 [29] = assay: Phototoxicity against human HepG2 cells assessed as cell viability at 5 uM pretreated for 24 hrs followed by 3.61 J irradiation for 14 mins measured after 24 hrs by Alamar blue assay relative to control; format: functional; conditions: HepG2, light or radiation study, read-out: Activity
Caco-2 [30] = assay: Dark toxicity against human Caco2 cells assessed as reduction in cell viability at 10 uM pretreated for 24 hrs followed by 14 mins dark incubation measured after 1 to 24 hrs by Alamar blue assay; format: cell-based; conditions: caco-2, 10 µM
HepG2 [31] = assay: Dark toxicity against human HepG2 cells assessed as reduction in cell viability at 1 uM pretreated for 24 hrs followed by 14 mins dark incubation measured after 1 to 24 hrs by Alamar blue assay; format: cell-based; conditions: hepg2, 1 µM
Caco-2 [32] = assay: Phototoxicity against human Caco2 cells at 5 to 10 uM pretreated for 24 hrs followed by 1.81 J irradiation for 7 mins measured after 24 hrs by Alamar blue assay; format: functional, cell-based
HepG2 [33] = assay: Phototoxicity against human HepG2 cells assessed as reduction in cell viability at 5 uM pretreated for 24 hrs followed by 3.61 J irradiation for 14 mins measured after 24 hrs by Alamar blue assay; format: functional, cell-based
HepG2 [34] = assay: Phototoxicity against human HepG2 cells assessed as reduction in cell viability up to 10 uM pretreated for 24 hrs followed by 1.81 J irradiation for 7 mins measured after 1 hr by Alamar blue assay; format: functional, cell-based
[35] = Dark toxicity against human HepG2 cells assessed as cell viability at 10 uM pretreated for 24 hrs followed by 14 mins dark incubation measured after 1 to 24 hrs by Alamar blue assay relative to control; format: cell-based; conditions: read-out: Activity
Caco-2 [36] = assay: Dark toxicity against human Caco2 cells assessed as reduction in cell viability at 1 uM pretreated for 24 hrs followed by 14 mins dark incubation measured after 1 to 24 hrs by Alamar blue assay; format: cell-based; conditions: caco-2, 1 µM
Caco-2 [37] = assay: Phototoxicity against human Caco2 cells at 5 to 10 uM pretreated for 24 hrs followed by 3.61 J irradiation for 14 mins measured after 24 hrs by Alamar blue assay; format: functional, cell-based

CCCCCCN1/C(=C/C2=C(NC)C(=C\c3ccc4ccccc4[n+]3CCCCCC)/C2=O)Sc2ccccc21.[I-]
IC50 at 1 h [1]: 2.93 µM
Activity (HepG2 [2]): Active
IC50 (HepG2 [3]): 1.02 µM
Activity (Caco-2 [4]): Active
viability at up to 1 µM [5]: 70%
Activity (Caco-2 [6]): Active
Ratio IC50 (Caco-2 [7]): 3.6
viability at 5 µM (Caco-2 [8]): 0%
Activity (HepG2 [9]): Active
Activity (HepG2 [10]): Active
viability at 48 h, 1 µM [11]: 70%
IC50 (HepG2 [12]): 3.39 µM
IC50 (Caco-2 [13]): 1.16 µM
IC50 at 24 h [14]: 1.27 µM
IC50 at 1 h [15]: 5.11 µM
IC50 (HepG2 [16]): 0.83 µM
IC50 at 24 h [17]: 1.36 µM
IC50 (HepG2 [18]): 0.93 µM
viability at up to 10 µM [19]: 0%
IC50 (Caco-2 [20]): 3.9 µM
IC50 (Caco-2 [21]): 1.46 µM
IC50 (Caco-2 [22]): 0.47 µM
viability at 24 h, 10 µM [23]: 0%
Activity [24]: Active
viability at 5 µM (Caco-2 [25]): 0%

CCCCCCN1/C(=C/C2=C(N)C(=C\c3ccc4ccccc4[n+]3CCCCCC)/C2=O)Sc2ccccc21
IC50 at 1 h [1]: 1.71 µM
Activity (HepG2 [2]): Active
IC50 (HepG2 [3]): 0.94 µM
Activity (Caco-2 [4]): Active
viability at 1 µM (Caco-2 [26]): 0%
Activity (HepG2 [9]): Active
Activity (HepG2 [10]): Active
viability at 48 h, 1 µM [11]: 20%
IC50 (HepG2 [12]): 0.75 µM
IC50 (Caco-2 [13]): 1.39 µM
IC50 at 24 h [14]: 1.65 µM
IC50 at 1 h [15]: 1.72 µM
viability at 24 h, 1 µM [27]: 20%
IC50 (HepG2 [16]): 0.65 µM
Activity (HepG2 [28]): Active
IC50 at 24 h [17]: 1.4 µM
IC50 (HepG2 [18]): 0.86 µM
viability at up to 10 µM [19]: 0%
IC50 (Caco-2 [20]): 1.24 µM
IC50 (Caco-2 [21]): 0.95 µM
IC50 (Caco-2 [22]): 0.69 µM
viability at 24 h, 10 µM [23]: 0%
Activity [24]: Active

CCCCCCN1/C(=C/C2=C([O-])C(=C\c3ccc4ccccc4[n+]3CCCCCC)/C2=O)Sc2ccccc21
IC50 at 1 h [1]: 9.1 µM
IC50 (HepG2 [3]): 8.24 µM
viability at 5 µM (HepG2 [29]): 50%
Activity (Caco-2 [30]): Non-Toxic
IC50 (HepG2 [12]): 8.53 µM
IC50 (Caco-2 [13]): 5.38 µM
Activity (HepG2 [31]): Non-Toxic
Activity (Caco-2 [32]): Active
Activity (HepG2 [33]): Active
IC50 at 24 h [14]: 5.8 µM
IC50 at 1 h [15]: > 10 µM
Activity (HepG2 [34]): inactive
IC50 (HepG2 [16]): 5.06 µM
IC50 at 24 h [17]: 7.84 µM
IC50 (HepG2 [18]): 8.95 µM
viability at 24 h, 10 µM [35]: 15%
Activity (Caco-2 [36]): Non-Toxic
IC50 (Caco-2 [20]): > 10 µM
IC50 (Caco-2 [21]): > 10 µM
IC50 (Caco-2 [22]): 5.08 µM
Activity (Caco-2 [37]): Active
Activity [24]: Active
